Here are results for 20 compounds from ChEMBL document CHEMBL4118077, “Synthesis of thiazole linked indolyl-3-glyoxylamide derivatives as tubulin polymerization inhibitors” (Eur J Med Chem, 2017).

The test system of one experiment is DU-145. The experiment in a line: Antiproliferative activity against human DU145 cells after 48 hrs by MTT assay. Type of experiment: functional, cell-based. To be noted: DU-145, 48 h.
A further experiment deals with A549. The experiment in a line: Antiproliferative activity against human A549 cells after 48 hrs by MTT assay. Type of experiment: functional, cell-based. To be noted: A549, 48 h. Background: Tetrazolium assays rely on reduction of a dye to a coloured formazan, in cell work by metabolically active cells.
In another experiment the test system is PC-3. The experiment in a line: Antiproliferative activity against human PC3 cells after 48 hrs by MTT assay. Type of experiment: functional, cell-based. To be noted: PC-3, 48 h.
The subject of the next experiment is HCT-15. The experiment in a line: Antiproliferative activity against human HCT15 cells after 48 hrs by MTT assay. Type of experiment: functional, cell-based. To be noted: HCT-15, 48 h.
The species entered for another experiment is Sus scrofa. The experiment in a line: Inhibition of porcine brain tubulin polymerization at 5 uM measured for 1 hr by fluorescence assay relative to control.

The structures appear in SMILES notation. pIC50: −log10 of the molar value.

Broadly, the pIC50 is −log10 of the IC50, conventionally taken in molar units. Read a low pIC50 as a high IC50. Consider `O=C(CCn1cc(C(=O)C(=O)N2CCCCC2)c2ccccc21)Nc1nccs1`, for which the pIC50 with DU-145, in the experiment on A549, with PC-3 and in the experiment on HCT-15 was below 4.30 each time.
Regarding `O=C(CCn1cc(C(=O)C(=O)N2CCCCC2)c2ccccc21)Nc1nc(-c2ccccc2)cs1`, the pIC50 in the experiment with DU-145, with A549, in the experiment with PC-3 and in the experiment with HCT-15 was below 4.30 in each case.
`COc1ccc2sc(NC(=O)Cn3cc(C(=O)C(=O)NC4CC4)c4ccccc43)nc2c1`: the pIC50 with DU-145 was 5.26; with A549 it was below 4.30; in the experiment with PC-3, 5.03; with HCT-15, below 4.30.
As for `CCOC(=O)c1nc(NC(=O)Cn2cc(C(=O)C(=O)N3CCCCC3)c3ccccc32)sc1C`, the pIC50 was 5.49 with DU-145, below 4.30 in the experiment on A549 and 5.09 with PC-3.
Broadly, the inhibition is the relative decrease from the control value, in per cent. A low value points to little suppression. As to `CCOC(=O)c1nc(NC(=O)Cn2cc(C(=O)C(=O)Nc3ccccc3)c3ccccc32)sc1C`, the negative-log IC50 (pIC50) in the experiment with DU-145 is 6.85; in the experiment on A549, 5.20; with PC-3, 5.21; with HCT-15 it was 5.60. This compound had an inhibition in the experiment listed under Sus scrofa of 58.4%.
Regarding `Cc1ccc(-c2csc(NC(=O)Cn3cc(C(=O)C(=O)Nc4ccccc4)c4cc(Br)ccc43)n2)cc1`, the pIC50 is 4.99 in the experiment on DU-145, below 4.30 with A549, below 4.30 with PC-3 and below 4.30 with HCT-15.
In the case of `O=C(Cn1cc(C(=O)C(=O)Nc2ccccc2)c2ccccc21)Nc1nccs1`, the pIC50 in the experiment on DU-145 was 5.29; in the experiment with A549, 4.68; with PC-3 it was below 4.30; in the experiment with HCT-15 it was below 4.30. The compound further gave an inhibition in the experiment listed under Sus scrofa of 23.5%.
For the compound `O=C(Cn1cc(C(=O)C(=O)NC2CC2)c2ccccc21)Nc1nc(-c2ccccc2)cs1`, the pIC50 was below 4.30 in the experiment on DU-145, 4.38 in the experiment on A549 and below 4.30 in the experiment on PC-3.
`O=C(Cn1cc(C(=O)C(=O)N2CCCCC2)c2ccccc21)Nc1nccs1`: the pIC50 with DU-145, in the experiment with A549, in the experiment with PC-3 and in the experiment on HCT-15 was below 4.30 each time.
For `CCOC(=O)c1nc(NC(=O)Cn2cc(C(=O)C(=O)NC3CC3)c3ccccc32)sc1C`, the pIC50 with DU-145 was 5.34; in the experiment with A549 it was 4.68; in the experiment on PC-3, 5.07; with HCT-15, 4.99. The inhibition in the experiment listed under Sus scrofa is 21.3%.
The corresponding values for `COc1ccc2sc(NC(=O)Cn3cc(C(=O)C(=O)N4CCCCC4)c4ccccc43)nc2c1` are 5.19, below 4.30, 5.38, below 4.30 and 38.5%.
Consider `Cc1ccc(-c2csc(NC(=O)CCn3cc(C(=O)C(=O)N4CCCCC4)c4ccccc43)n2)cc1`, for which the negative logarithm of the IC50 (pIC50) in the experiment on DU-145, in the experiment with A549, with PC-3 and with HCT-15 was below 4.30 in each case.
`CCOC(=O)c1nc(NC(=O)CCn2cc(C(=O)C(=O)N3CCCCC3)c3ccccc32)sc1C`: the pIC50 in the experiment with DU-145, with A549, in the experiment on PC-3 and with HCT-15 was below 4.30 each time. This compound had an inhibition in the experiment filed under Sus scrofa of 12.2%.
For `O=C(Cn1cc(C(=O)C(=O)N2CCCCC2)c2ccccc21)Nc1nc(-c2ccccc2)cs1`, the negative-log IC50 (pIC50) in the experiment with DU-145 is 4.60; in the experiment on A549, below 4.30; with PC-3, below 4.30; in the experiment with HCT-15, below 4.30.
Take `O=C(Cn1cc(C(=O)C(=O)NC2CC2)c2ccccc21)Nc1nccs1`: the pIC50 in the experiment with DU-145, in the experiment with A549 and in the experiment on PC-3 was below 4.30 each time.
As to `O=C(Cn1cc(C(=O)C(=O)Nc2ccccc2)c2cc(Br)ccc21)Nc1nccs1`, the pIC50 in the experiment with DU-145 was 4.59; in the experiment on A549, 4.36; in the experiment with PC-3, below 4.30; with HCT-15, below 4.30.
In the case of `COc1ccc2sc(NC(=O)CCn3cc(C(=O)C(=O)N4CCCCC4)c4ccccc43)nc2c1`, the pIC50 in the experiment with DU-145 was 4.91; in the experiment with A549 it was below 4.30; in the experiment on PC-3 it was 4.81; in the experiment with HCT-15 it was below 4.30.
Turning to `O=C(Cn1cc(C(=O)C(=O)Nc2ccccc2)c2ccccc21)Nc1nc(-c2ccccc2)cs1`, the pIC50 is 4.46 in the experiment on DU-145, below 4.30 with A549, below 4.30 in the experiment on PC-3 and below 4.30 in the experiment on HCT-15.
`COc1cc([C@@H]2c3cc4c(cc3[C@H](O)[C@H]3COC(=O)[C@H]23)OCO4)cc(OC)c1OC` came in with an inhibition in the experiment listed under Sus scrofa of 78%.
In the case of `COc1ccc2sc(NC(=O)Cn3cc(C(=O)C(=O)Nc4ccccc4)c4cc(Br)ccc43)nc2c1`, the pIC50 in the experiment on DU-145 was 5.25; in the experiment with A549, below 4.30; in the experiment on PC-3, 4.87; in the experiment with HCT-15 it was 4.90. The inhibition in the experiment filed under Sus scrofa was found to be 23.3%.
